This is an account of results in patent publication EP0057141A2, “Esters of halogene-biphenylcarboxylates, method of preparation and their application as medicines” (PIERRE FABRE S.A., priority 1981, dated 1982).

Each structure is given as a SMILES string.

The nature of this data set: Solubility in water and solvents. Format: physicochemical. The note with it: for Solubilités : propylène glycol: propylene glycol; for Solubilités : eau: result in words; for Solubilités : éthanol: ethanol.

`O=C(OCc1cccnc1)c1ccc(-c2ccccc2Cl)cc1` [Exemple 10, chloro-2' biphényl-4 carboxylate de pyridyl-3 méthyle, chlorhydrate]: the “Solubilités : diméthyl sulfoxyde (DMSO)” value was determined as 12% and the “Solubilités : propylène glycol” value is on record as 0,1%. Moreover, the “Solubilités : eau” value (water) is recorded as “insoluble”.

Consider `CCCCCCCCOC(=O)c1ccc(-c2ccccc2Cl)cc1` [Exemple 3, chloro-2' biphényl-4 carboxylate de n-octyle], for which the “Solubilités : diméthyl sulfoxyde (DMSO)” value is 20%, the “Solubilités : éthanol” value was determined as 5% and the “Solubilités : propylène glycol” value is 0,1%. In addition, under “water”, the “Solubilités : eau” value was “insoluble”.

Turning to `CCCCCCCCCCCCCCCCOC(=O)c1ccc(-c2ccccc2Cl)cc1` [Exemple 4, chloro-2' biphényl-4 carboxylate de n-hexadecyle], the “Solubilités : diméthyl sulfoxyde (DMSO)” value was 0,1%, the “Solubilités : éthanol” value was 0,5% and the “Solubilités : propylène glycol” value is recorded as 0,1%. Besides, for the setting “DMA”, the “Solubilités : DMA” value is reported as 1%. Besides, the “Solubilités : eau” value (water) was “insoluble”.

As to `CCOC(=O)c1ccc(-c2ccccc2Cl)cc1` [Exemple 1, chloro-2' biphényl-4 carboxylate d'éthyle], the “Solubilités : diméthyl sulfoxyde (DMSO)” value turned out to be 20%, the “Solubilités : éthanol” value is given as 5% and the “Solubilités : propylène glycol” value is reported as 1%. Also, the “Solubilités : eau” value (water) is recorded as “insoluble”.

`O=C(OCc1ccccc1)c1ccc(-c2ccccc2Cl)cc1` [Exemple 6, chloro-2' biphényl-4 carboxylate de benzyle]: the “Solubilités : diméthyl sulfoxyde (DMSO)” value came to 20%, the “Solubilités : éthanol” value stood at 2% and the “Solubilités : propylène glycol” value is recorded as 0,2%. Besides, the “Solubilités : eau” value (water) is “Insoluble”.

For `CC1CC(OC(=O)c2ccc(-c3ccccc3Cl)cc2)CC(C)(C)C1` (stereo not drawn) [Exemple 5, chloro-2^1 biphényl-4 carboxylatede triméthyl-3-3-5 clohexyle], the “Solubilités : diméthyl sulfoxyde (DMSO)” value is on record as 20%, the “Solubilités : éthanol” value came to 2% and the “Solubilités : propylène glycol” value is 0,1%. In addition, where the note is “water”, the “Solubilités : eau” value was “insoluble”.

Consider `CN(C)CCOC(=O)c1ccc(-c2ccccc2Cl)cc1` [Exemple 9, chloro-2' biphényl-4 carboxylate de diméthylamino-2 éthyle, chlorhydrate], for which the “Solubilités : diméthyl sulfoxyde (DMSO)” value amounted to 12%. For the same compound, the solubility (water, read-out: Solubilités : eau) amounted to 100 mg/mL.

With `CC(C)OC(=O)c1ccc(-c2ccccc2Cl)cc1` [Exemple 2, chloro-2' biphényl-4 carboxylate d'isopropyle], the “Solubilités : diméthyl sulfoxyde (DMSO)” value stood at 10%, the “Solubilités : éthanol” value is on record as 2% and the “Solubilités : propylène glycol” value is given as 1%. The “Solubilités : eau” value (water) was “insoluble”.
